These molecules were tested against T1, ALDH2 (Homo sapiens, UniProt P05091) (assay: Selectivity biochemical assay, NAD(P)H-Glo Detection System).
T1 sequence (P05091 18-517): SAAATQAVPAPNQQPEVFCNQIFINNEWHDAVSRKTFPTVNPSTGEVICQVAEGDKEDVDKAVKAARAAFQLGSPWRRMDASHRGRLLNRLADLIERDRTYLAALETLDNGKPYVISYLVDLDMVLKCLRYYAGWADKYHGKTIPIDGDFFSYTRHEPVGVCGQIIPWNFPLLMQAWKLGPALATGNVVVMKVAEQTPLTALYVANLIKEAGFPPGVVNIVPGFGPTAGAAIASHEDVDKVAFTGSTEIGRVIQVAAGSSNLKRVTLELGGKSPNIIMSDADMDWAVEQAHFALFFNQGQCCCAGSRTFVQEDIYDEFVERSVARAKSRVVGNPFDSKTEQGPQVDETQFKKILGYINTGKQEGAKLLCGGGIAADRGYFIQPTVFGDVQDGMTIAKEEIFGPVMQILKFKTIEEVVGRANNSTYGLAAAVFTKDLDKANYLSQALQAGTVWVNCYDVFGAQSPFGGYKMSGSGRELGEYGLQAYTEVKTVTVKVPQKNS
Experimental: Materials: ALDH2 was purchased from Abnova. Tris(hydroxymethyl)aminomethane (Tris) was purchased from MP Biomedicals. TCEP, ethylenediaminetetraacetic acid (EDTA), propionaldehyde, DMSO and Tween-20 were purchased from Sigma. Nicotinamide adenine dinucleotide (NAD) was obtained from Abcam. The NAD(P)H-Glo™ Detection System was purchased from Promega. White, non-binding surface, 384 well plates were supplied by Corning (#3574).
Method: Inhibition of ALDH1A3 was assessed using the NAD(P)H-Glo™ Detection System (Cat. No. G9062) from Promega. This assay detects the production of NADH from NAD by ALDH1A3 via the coupled enzymatic conversion of a proluciferin reductase substrate to generate a luminescent signal. Inhibition of ALDH1A3 by small molecule inhibitors will result in reduction or abrogation of luminescence signal increase above background. Inhibition of ALDH1A1, ALDH1A2 and ALDH2 (selectivity assays) were assessed using the same assay.
Compounds were dosed into Corning 384 well assay plates using an Echo acoustic dispenser to give 10 point curves in a 3-fold dilution series. Compounds were dispensed from a 20 mM DMSO stock and initially screened at a top concentration of 20 μM (ALDH1A3) or 250 μM (ALDH1A1, ALDH1A2 & ALDH2). Enzyme was added to the plate in a 5 μL volume, according to the final concentrations in table 1 below, and pre-incubated with compound for 30 minutes at room temperature before the addition of 5 μL of the substrate (propionaldehyde) and cofactor (NAD), to effect final concentrations equal to the Km as shown in Table 1. The assay buffer used consisted of 40 mM Tris for 1A1 (pH 7.6), 1A2 (pH 7.6) and 1A3 (pH 9.0) and 10 mM Tris for ALDH2 (pH 8.0) supplemented with 1 mM TCEP, 0.01% Tween-20, 0.1 mM EDTA. The reaction mix was incubated at 26° C. on a shaking incubator for 30 minutes before being stopped by the addition of 10 μL of the Promega detection reagent and 100×IC50 of inhibitors of the respective isoforms. After stopping the reaction the plate was incubated for 60 minutes at room temperature and the luminescence signal read on a PheraStar FS microplate reader (BMG Labtech) and resulting IC50 values were calculated using Dotmatics software.
Enzyme, substrate and cofactor concentrations were selected to ensure the reaction ran under initial velocity conditions.
With `CCN(CC)CCN(CCOc1ccc2c(c1)CCC(=O)N2)Cc1ccccc1` [ALDHI-3004, 6-[2-[benzyl-[2-(diethylamino)ethyl]amino]ethoxy]-3,4-dihydro-1H-quinolin-2-one] the IC50 was no less than 100 µM. `CN(CCOc1ccc2c(c1)CCC(=O)N2)Cc1cccnc1` [ALDHI-3010, 6-[2-[methyl(3-pyridylmethyl)amino]ethoxy]-3,4-dihydro-1H-quinolin-2-one] gave an IC50 of no less than 100 µM. Work on `O=C1CCc2cc(NC(=O)c3ocnc3-c3cccc(F)c3)ccc2N1` [ALDHI-1019, 4-(3-fluorophenyl)-N-(2-oxo-3,4-dihydro-1H-quinolin-6-yl)oxazole-5-carboxamide] yielded an IC50 of no less than 100 µM. Work on `O=C1CCc2cc(OCCN3CCCC3c3ccc(F)c(F)c3)ccc2N1` (centres unmarked) [ALDHI-2039, 6-[2-[2-(3,4-difluorophenyl)pyrrolidin-1-yl]ethoxy]-3,4-dihydro-1H-quinolin-2-one] yielded an IC50 of no less than 100 µM. Work on `O=C1CCc2cc(NC(=O)c3sc(N4CCNCC4)nc3-c3cccc(F)c3)ccc2N1` [ALDHI-1005, 4-(3-fluorophenyl)-N-(2-oxo-3,4-dihydro-1H-quinolin-6-yl)-2-piperazin-1-yl-thiazole-5-carboxamide] yielded an IC50 of no less than 100 µM. Molecule `O=C1CCc2cc(OCCN3CCCC3c3cccc(F)c3)ccc2N1` (centres unmarked) [ALDHI-2001, 6-[2-[2-(3-fluorophenyl)pyrrolidin-1-yl]ethoxy]-3,4-dihydro-1H-quinolin-2-one] has an IC50 of no less than 100 µM. Molecule `Cc1ccc(C2CCCN2CCOc2ccc3c(c2)CCC(=O)N3)cc1` (centres unmarked) [ALDHI-2010, 6-[2-[2-(p-tolyl)pyrrolidin-1-yl]ethoxy]-3,4-dihydro-1H-quinolin-2-one] has an IC50 of no less than 100 µM. Work on `O=C1CSc2cc(OCCN3CCCC3c3ccncc3)ccc2N1` (centres unmarked) [ALDHI-2029, 7-[2-[2-(4-pyridyl)pyrrolidin-1-yl]ethoxy]-4H-1,4-benzothiazin-3-one] yielded an IC50 of no less than 100 µM. Work on `O=C1CCc2cc(NC(=O)c3scnc3-c3ccc(F)cc3)ccc2N1` [ALDHI-1017, 4-(4-fluorophenyl)-N-(2-oxo-1,2,3,4-tetrahydroquinolin-6-yl)thiazole-5-carboxamide] yielded an IC50 of no less than 100 µM. `Cc1ccccc1C1CCCN1CCOc1ccc2c(c1)CCC(=O)N2` (centres unmarked) [ALDHI-2012, 6-[2-[2-(o-tolyl)pyrrolidin-1-yl]ethoxy]-3,4-dihydro-1H-quinolin-2-one] was tested, and the IC50 was no less than 100 µM. In the case of `O=C1CCc2cc(OCCN3CCCC3c3ccc(F)cc3)ccc2N1` (centres unmarked) [ALDHI-2003, 6-[2-[2-(4-fluorophenyl)pyrrolidin-1-yl]ethoxy]-3,4-dihydro-1H-quinolin-2-one], the IC50 is reported as 10 to 100 µM. Work on `CC1CN(CCOc2ccc3c(c2)CCC(=O)N3)C(c2ccccc2)CO1` (mixture of isomers) [ALDHI-2042, 6-[2-(2-methyl-5-phenyl-morpholin-4-yl)ethoxy]-3,4-dihydro-1H-quinolin-2-one] yielded an IC50 of no less than 100 µM. With `O=C1CCc2cc(OCCN(CCO)Cc3cccnc3)ccc2N1` [ALDHI-3005, 6-[2-[2-hydroxyethyl(3-pyridylmethyl)amino]ethoxy]-3,4-dihydro-1H-quinolin-2-one] the IC50 was no less than 100 µM. Work on `COc1cccc(C2CCCN2CCOc2ccc3c(c2)CCC(=O)N3)c1` (centres unmarked) [ALDHI-2034, 6-[2-[2-(3-methoxyphenyl)pyrrolidin-1-yl]ethoxy]-3,4-dihydro-1H-quinolin-2-one] yielded an IC50 of no less than 100 µM. Work on `Cc1cccc(-c2ncsc2C(=O)Nc2ccc3c(c2)CCC(=O)N3)c1` [ALDHI-1013, 4-(m-tolyl)-N-(2-oxo-3,4-dihydro-1H-quinolin-6-yl)thiazole-5-carboxamide] yielded an IC50 of no less than 100 µM. `O=C1CCc2cc(OCCN3CCCC3c3cccc(F)c3)c(F)cc2N1` (centres unmarked) [ALDHI-2050, 7-fluoro-6-[2-[2-(3-fluorophenyl)pyrrolidin-1-yl]ethoxy]-3,4-dihydro-1H-quinolin-2-one] gave an IC50 of no less than 100 µM. `O=C1CCc2cc(NC(=O)c3cncnc3-c3cccc(F)c3)ccc2N1` [ALDHI-1018, 4-(3-fluorophenyl)-N-(2-oxo-3,4-dihydro-1H-quinolin-6-yl)pyrimidine-5-carboxamide] was tested, and the IC50 was no less than 100 µM. `O=C1COc2cc(NC(=O)c3scnc3-c3cccc(F)c3)ccc2N1` [ALDHI-1016, 4-(3-fluorophenyl)-N-(3-oxo-4H-1,4-benzoxazin-7-yl)thiazole-5-carboxamide] gave an IC50 of no less than 100 µM. `O=C1CCc2cc(NC(=O)c3scnc3-c3ccccc3F)ccc2N1` [ALDHI-1021, 4-(2-fluorophenyl)-N-(2-oxo-3,4-dihydro-1H-quinolin-6-yl)thiazole-5-carboxamide] was tested, and the IC50 was no less than 100 µM. `O=C1CCc2cc(OCCN3CCCC3c3ccsc3)ccc2N1` (centres unmarked) [ALDHI-2014, 6-[2-[2-(3-thienyl)pyrrolidin-1-yl]ethoxy]-3,4-dihydro-1H-quinolin-2-one] showed an IC50 of no less than 100 µM. Molecule `Cc1noc(-c2ccccc2C(=O)Nc2ccc3c(c2)CCC(=O)N3)n1` [ALDHI-1008, 2-(3-methyl-1,2,4-oxadiazol-5-yl)-N-(2-oxo-1,2,3,4-tetrahydroquinolin-6-yl)benzamide] has an IC50 of no less than 100 µM. Work on `O=C1CCc2cc(OCCn3ccnc3-c3ccccc3)ccc2N1` [ALDHI-2041, 6-[2-(2-phenylimidazol-1-yl)ethoxy]-3,4-dihydro-1H-quinolin-2-one] yielded an IC50 of no less than 100 µM. In the case of `O=C1CCc2cc(NC(=O)c3sc(N4CC(O)C4)nc3-c3cccc(F)c3)ccc2N1` [ALDHI-1004, 4-(3-fluorophenyl)-2-(3-hydroxyazetidin-1-yl)-N-(2-oxo-3,4-dihydro-1H-quinolin-6-yl)thiazole-5-carboxamide], the IC50 is reported as no less than 100 µM. Molecule `O=C1CSc2cc(OCCN3CCCC3c3cccnc3)ccc2N1` (centres unmarked) [ALDHI-2028, 7-[2-[2-(3-pyridyl)pyrrolidin-1-yl]ethoxy]-4H-1,4-benzothiazin-3-one] has an IC50 of no less than 100 µM. Molecule `C[C@@H](c1ccccc1)N(CCO)CCOc1ccc2c(c1)CCC(=O)N2` [ALDHI-3007, 6-[2-[2-hydroxyethyl-[(1S)-1-phenylethyl]amino]ethoxy]-3,4-dihydro-1H-quinolin-2-one] has an IC50 of no less than 100 µM. In the case of `CN(CCOc1ccc2c(c1)CCC(=O)N2)C(CO)c1cccc(F)c1` (centres unmarked) [ALDHI-3003, 6-[2-[[1-(3-fluorophenyl)-2-hydroxy-ethyl]-methyl-amino]ethoxy]-3,4-dihydro-1H-quinolin-2-one], the IC50 is reported as no less than 100 µM. With `O=C1CCc2cc(NC(=O)c3ncsc3-c3cccc(F)c3)ccc2N1` [ALDHI-1014, 5-(3-fluorophenyl)-N-(2-oxo-3,4-dihydro-1H-quinolin-6-yl)thiazole-4-carboxamide] the IC50 was no less than 100 µM. With `O=C1CCc2cc(NC(=O)c3sc(N4CCOCC4)nc3-c3cccc(F)c3)ccc2N1` [ALDHI-1001, 4-(3-fluorophenyl)-2-morpholino-N-(2-oxo-3,4-dihydro-1H-quinolin-6-yl)thiazole-5-carboxamide] the IC50 was no less than 100 µM. With `O=C1CCc2cc(OCCN3CCCC3c3cccs3)ccc2N1` (centres unmarked) [ALDHI-2013, 6-[2-[2-(2-thienyl)pyrrolidin-1-yl]ethoxy]-3,4-dihydro-1H-quinolin-2-one] the IC50 was no less than 100 µM. `CC1Oc2cc(OCCN3CCCC3c3cccc(F)c3)ccc2NC1=O` (centres unmarked) [ALDHI-2044, 7-[2-[2-(3-fluorophenyl)pyrrolidin-1-yl]ethoxy]-2-methyl-4H-1,4-benzoxazin-3-one] showed an IC50 of no less than 100 µM. `O=C1CSc2cc(OCCN3CCCC3c3ccccn3)ccc2N1` (centres unmarked) [ALDHI-2027, 7-[2-[2-(2-pyridyl)pyrrolidin-1-yl]ethoxy]-4H-1,4-benzothiazin-3-one] showed an IC50 of no less than 100 µM. For `O=C1CCc2cc(NC(=O)c3ncsc3-c3ccsc3)ccc2N1` [ALDHI-1011, N-(2-oxo-3,4-dihydro-1H-quinolin-6-yl)-5-(3-thienyl)thiazole-4-carboxamide], the IC50 was no less than 100 µM. `CC1Cc2cc(OCCN3CCCC3c3cccc(F)c3)ccc2NC1=O` (centres unmarked) [ALDHI-2048, 6-[2-[2-(3-fluorophenyl)pyrrolidin-1-yl]ethoxy]-3-methyl-3,4-dihydro-1H-quinolin-2-one] gave an IC50 of no less than 100 µM. `O=C1CCc2cc(NC(=O)c3scnc3-c3cccs3)ccc2N1` [ALDHI-1023, N-(2-oxo-3,4-dihydro-1H-quinolin-6-yl)-4-(2-thienyl)thiazole-5-carboxamide] was tested, and the IC50 was no less than 100 µM. Work on `O=C1CCc2cc(OCCN3CCCC3c3cccnc3)ccc2N1` (centres unmarked) [ALDHI-2005, 6-[2-[2-(3-pyridyl)pyrrolidin-1-yl]ethoxy]-3,4-dihydro-1H-quinolin-2-one] yielded an IC50 of no less than 100 µM.
